In paper doi:10.1101/2025.11.20.689572v1 (biorxiv, 2025):
Read-outs that look alike come from different tables or passages of the source.

Assays:
5-HT2C = molecular target: T1, 5-HT2C (Homo sapiens, UniProt P28335); test: competitive radioligand binding, HEK293 membranes
T1 construct: gene HTR2C; full-length receptor; HEK293 cell membranes
Text: competitive radioligand binding, HEK293 membranes on 5-HT2C

M3 [1] = molecular target: T2, M3 (Homo sapiens, UniProt P20309); test: competitive radioligand binding, HEK293 membranes
T2 construct: gene CHRM3; full-length receptor; HEK293 with TRUPATH sensors (function)
T2 sequence (P20309 whole entry): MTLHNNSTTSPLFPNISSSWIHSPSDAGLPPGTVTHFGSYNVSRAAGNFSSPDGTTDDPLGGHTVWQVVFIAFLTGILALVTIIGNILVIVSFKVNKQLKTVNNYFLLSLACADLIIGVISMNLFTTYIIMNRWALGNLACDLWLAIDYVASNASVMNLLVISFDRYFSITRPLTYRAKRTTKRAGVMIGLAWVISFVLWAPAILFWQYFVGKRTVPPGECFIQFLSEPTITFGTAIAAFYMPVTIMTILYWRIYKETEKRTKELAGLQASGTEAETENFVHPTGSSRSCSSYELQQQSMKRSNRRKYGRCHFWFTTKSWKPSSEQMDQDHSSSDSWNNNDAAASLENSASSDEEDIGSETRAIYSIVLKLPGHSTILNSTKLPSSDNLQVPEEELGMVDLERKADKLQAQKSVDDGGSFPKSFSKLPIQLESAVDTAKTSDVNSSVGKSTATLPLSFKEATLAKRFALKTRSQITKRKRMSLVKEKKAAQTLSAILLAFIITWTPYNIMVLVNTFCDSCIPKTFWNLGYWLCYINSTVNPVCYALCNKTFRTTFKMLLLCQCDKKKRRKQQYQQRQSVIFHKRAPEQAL
Text: competitive radioligand binding, HEK293 membranes on M3

α2B = molecular target: T3, α2B (Homo sapiens, UniProt P18089); test: competitive radioligand binding, HEK293 membranes
T3 construct: gene ADRA2B; full-length receptor; HEK293 cell membranes
T3 sequence (P18089 whole entry): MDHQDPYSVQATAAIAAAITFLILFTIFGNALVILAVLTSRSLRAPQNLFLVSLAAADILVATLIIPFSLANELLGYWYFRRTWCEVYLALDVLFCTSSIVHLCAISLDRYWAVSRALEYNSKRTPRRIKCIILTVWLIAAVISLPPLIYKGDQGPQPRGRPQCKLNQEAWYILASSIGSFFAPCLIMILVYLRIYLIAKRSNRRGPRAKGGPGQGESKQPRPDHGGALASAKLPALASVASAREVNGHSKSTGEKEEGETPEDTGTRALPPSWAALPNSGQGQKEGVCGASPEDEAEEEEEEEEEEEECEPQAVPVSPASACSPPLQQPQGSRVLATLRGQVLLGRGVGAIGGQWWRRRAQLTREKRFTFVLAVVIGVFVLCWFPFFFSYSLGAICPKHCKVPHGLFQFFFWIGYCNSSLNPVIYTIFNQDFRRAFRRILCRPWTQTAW
Text: competitive radioligand binding, HEK293 membranes on α2B

5-HT1F = molecular target: T4, 5-HT1F (Homo sapiens, UniProt P30939); test: competitive radioligand binding, HEK293 membranes
T4 construct: gene HTR1F; full-length receptor; HEK293 cell membranes
T4 sequence (P30939 whole entry): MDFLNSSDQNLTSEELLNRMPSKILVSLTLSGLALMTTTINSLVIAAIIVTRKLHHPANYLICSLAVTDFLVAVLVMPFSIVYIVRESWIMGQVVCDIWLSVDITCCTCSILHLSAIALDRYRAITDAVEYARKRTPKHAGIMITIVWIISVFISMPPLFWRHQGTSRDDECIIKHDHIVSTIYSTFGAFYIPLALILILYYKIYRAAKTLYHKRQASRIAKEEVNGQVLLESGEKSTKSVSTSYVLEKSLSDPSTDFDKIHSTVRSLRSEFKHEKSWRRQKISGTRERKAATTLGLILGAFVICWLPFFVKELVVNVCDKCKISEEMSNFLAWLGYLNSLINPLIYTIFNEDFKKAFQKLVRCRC
Text: competitive radioligand binding, HEK293 membranes on 5-HT1F

D3 = molecular target: T5, D3 (Homo sapiens, UniProt P35462); test: competitive radioligand binding, HEK293 membranes
T5 construct: gene DRD3; full-length receptor; HEK293 cell membranes
T5 sequence (P35462 whole entry): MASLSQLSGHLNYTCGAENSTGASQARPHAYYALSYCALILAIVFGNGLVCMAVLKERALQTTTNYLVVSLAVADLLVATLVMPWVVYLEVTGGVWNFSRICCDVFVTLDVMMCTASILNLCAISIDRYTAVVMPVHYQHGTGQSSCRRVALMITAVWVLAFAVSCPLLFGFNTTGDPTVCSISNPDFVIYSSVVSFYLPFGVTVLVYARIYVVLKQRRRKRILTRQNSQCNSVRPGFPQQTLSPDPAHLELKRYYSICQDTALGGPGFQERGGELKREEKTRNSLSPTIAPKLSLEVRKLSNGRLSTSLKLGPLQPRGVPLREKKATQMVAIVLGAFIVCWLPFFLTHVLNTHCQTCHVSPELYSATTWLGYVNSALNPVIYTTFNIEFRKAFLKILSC
Text: competitive radioligand binding, HEK293 membranes on D3

M3 [2] = molecular target: T2, M3; test: TRUPATH BRET2 G protein dissociation, HEK293; assay type: cell-based; settings: HBSS, […] HEPES pH […] °C; agonist mode
5-HT2A = molecular target: T6, 5-HT2A (Homo sapiens, UniProt P28223); test: competitive radioligand binding, HEK293 membranes
T6 construct: gene HTR2A; full-length receptor; HEK293 cell membranes
T6 sequence (P28223 whole entry): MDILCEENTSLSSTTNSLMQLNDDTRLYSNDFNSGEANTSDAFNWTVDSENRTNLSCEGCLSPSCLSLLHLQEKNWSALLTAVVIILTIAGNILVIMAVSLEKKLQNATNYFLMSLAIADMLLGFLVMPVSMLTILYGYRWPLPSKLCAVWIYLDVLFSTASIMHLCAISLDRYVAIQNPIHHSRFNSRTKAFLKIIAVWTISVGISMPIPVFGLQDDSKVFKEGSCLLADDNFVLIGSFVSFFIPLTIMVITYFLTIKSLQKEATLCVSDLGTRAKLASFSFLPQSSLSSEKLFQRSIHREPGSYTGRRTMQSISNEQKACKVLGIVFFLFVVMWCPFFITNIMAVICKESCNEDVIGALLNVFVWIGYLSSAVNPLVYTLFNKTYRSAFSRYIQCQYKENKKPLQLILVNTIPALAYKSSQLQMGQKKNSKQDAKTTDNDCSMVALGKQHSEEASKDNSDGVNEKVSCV
Text: competitive radioligand binding, HEK293 membranes on 5-HT2A

CHRM1 = molecular target: T7, CHRM1 (Homo sapiens, UniProt P11229); test: cell-based; set-up: PRESTO-Tango beta-arrestin2 recruitment, luciferase luminescence, concentration-response; settings: HTLA, Assay=Tango, agonist mode, % of control agonist
T7 sequence (P11229 1-460): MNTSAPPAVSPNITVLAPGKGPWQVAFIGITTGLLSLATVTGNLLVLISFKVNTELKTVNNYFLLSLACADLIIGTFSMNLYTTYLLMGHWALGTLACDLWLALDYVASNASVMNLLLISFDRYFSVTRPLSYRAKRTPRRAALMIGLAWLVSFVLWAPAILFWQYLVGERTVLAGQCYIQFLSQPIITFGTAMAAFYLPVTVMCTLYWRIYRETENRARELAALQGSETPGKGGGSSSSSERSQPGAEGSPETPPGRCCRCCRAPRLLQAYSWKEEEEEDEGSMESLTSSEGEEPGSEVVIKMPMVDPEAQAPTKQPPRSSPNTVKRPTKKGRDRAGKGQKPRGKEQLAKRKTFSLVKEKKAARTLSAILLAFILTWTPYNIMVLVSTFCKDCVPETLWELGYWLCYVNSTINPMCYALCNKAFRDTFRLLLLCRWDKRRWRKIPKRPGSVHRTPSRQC
Procedure: (§1) Off-target agonism across the human GPCRome was profiled using PRESTO-Tango, following established protocols with minor adaptations [10]–[12]. […] After ~6 h recovery, cells were transfected with 20 ng plasmid DNA per well and incubated overnight. The next day, 10 µL of test compound (prepared in DMEM + 1% dFBS) was added, and plates were incubated overnight. Media and compounds were removed, and 20 µL per well of Bright-Glo luciferase reagent diluted in assay buffer (Hank’s Balanced Salt Solution (HBSS), 20 mM HEPES, pH 7.4) was added. After 20 min at room temperature (dark), luminescence was recorded. Each plate included the dopamine D2 receptor (DRD2) stimulated with 100 nM quinpirole as a positive control. For the GPCRome screen, each receptor was tested in quadruplicate at 0 and 10 µM compound (final). Responses were expressed as fold change relative to the basal (0 µM) condition. Follow-up concentration–response assays were performed under identical conditions except that serial dilutions of compounds (maximum ~30 µM, final) were added to generate full concentration–response curves.

CHRM3 = CHRM3 (Homo sapiens, UniProt P20309); test: cell-based; set-up: PRESTO-Tango beta-arrestin2 recruitment, luciferase luminescence, concentration-response; settings: HTLA, Assay=Tango, agonist mode, % of control agonist
Sequence of CHRM3 (P20309 whole entry): as the sequence (P20309 whole entry) above
Procedure: as §1

CHRM4 = molecular target: T8, CHRM4 (Homo sapiens, UniProt P08173); test: cell-based; set-up: PRESTO-Tango beta-arrestin2 recruitment, luciferase luminescence, concentration-response; settings: HTLA, Assay=Tango, agonist mode, % of control agonist
T8 sequence (P08173 1-479): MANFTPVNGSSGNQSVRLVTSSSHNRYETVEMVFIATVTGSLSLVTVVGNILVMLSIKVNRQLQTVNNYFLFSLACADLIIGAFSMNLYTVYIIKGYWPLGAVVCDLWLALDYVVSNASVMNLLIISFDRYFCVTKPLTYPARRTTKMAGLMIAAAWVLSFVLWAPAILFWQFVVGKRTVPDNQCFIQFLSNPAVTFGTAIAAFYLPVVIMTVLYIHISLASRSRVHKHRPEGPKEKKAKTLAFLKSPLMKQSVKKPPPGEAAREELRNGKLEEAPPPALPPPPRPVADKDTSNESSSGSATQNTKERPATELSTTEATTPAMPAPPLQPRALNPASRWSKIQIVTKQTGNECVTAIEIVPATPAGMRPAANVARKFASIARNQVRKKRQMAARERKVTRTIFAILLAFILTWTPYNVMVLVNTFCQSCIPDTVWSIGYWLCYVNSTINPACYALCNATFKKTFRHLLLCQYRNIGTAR
Procedure: as §1

HRH3 = HRH3 (Homo sapiens, UniProt Q9Y5N1); test: cell-based; set-up: PRESTO-Tango beta-arrestin2 recruitment, luciferase luminescence, concentration-response; settings: HTLA, Assay=Tango, agonist mode, % of control agonist
Sequence of HRH3 (Q9Y5N1 whole entry): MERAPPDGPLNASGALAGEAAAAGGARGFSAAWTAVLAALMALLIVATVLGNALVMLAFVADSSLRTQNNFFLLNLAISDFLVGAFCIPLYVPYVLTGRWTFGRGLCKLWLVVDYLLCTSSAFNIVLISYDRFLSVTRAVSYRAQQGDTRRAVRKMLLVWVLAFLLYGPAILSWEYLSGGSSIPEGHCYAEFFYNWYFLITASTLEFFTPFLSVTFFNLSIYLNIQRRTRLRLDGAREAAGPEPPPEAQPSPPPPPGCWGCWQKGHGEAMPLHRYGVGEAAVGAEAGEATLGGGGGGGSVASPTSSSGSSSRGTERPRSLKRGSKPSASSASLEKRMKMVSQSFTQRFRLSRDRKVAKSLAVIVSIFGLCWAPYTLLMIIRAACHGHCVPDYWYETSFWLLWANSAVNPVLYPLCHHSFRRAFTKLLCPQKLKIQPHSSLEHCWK
Procedure: as §1

HRH4 = HRH4 (Homo sapiens, UniProt Q9H3N8); test: cell-based; set-up: PRESTO-Tango beta-arrestin2 recruitment, luciferase luminescence, concentration-response; settings: HTLA, Assay=Tango, agonist mode, % of control agonist
Sequence of HRH4 (Q9H3N8 whole entry): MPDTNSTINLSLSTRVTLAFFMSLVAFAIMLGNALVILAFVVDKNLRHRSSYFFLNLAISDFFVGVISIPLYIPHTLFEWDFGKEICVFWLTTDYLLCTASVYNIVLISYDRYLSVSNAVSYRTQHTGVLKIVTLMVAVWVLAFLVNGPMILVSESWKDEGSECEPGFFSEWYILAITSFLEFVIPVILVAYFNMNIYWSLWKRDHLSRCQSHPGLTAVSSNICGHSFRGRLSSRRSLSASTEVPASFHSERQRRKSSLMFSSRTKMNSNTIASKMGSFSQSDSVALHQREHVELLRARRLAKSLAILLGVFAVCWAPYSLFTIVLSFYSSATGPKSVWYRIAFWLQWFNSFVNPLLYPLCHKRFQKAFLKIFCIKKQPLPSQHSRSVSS
Procedure: as §1

HTR1D = HTR1D (Homo sapiens, UniProt P28221); test: cell-based; set-up: PRESTO-Tango beta-arrestin2 recruitment, luciferase luminescence, concentration-response; settings: HTLA, Assay=Tango, agonist mode, % of control agonist
Sequence of HTR1D (P28221 whole entry): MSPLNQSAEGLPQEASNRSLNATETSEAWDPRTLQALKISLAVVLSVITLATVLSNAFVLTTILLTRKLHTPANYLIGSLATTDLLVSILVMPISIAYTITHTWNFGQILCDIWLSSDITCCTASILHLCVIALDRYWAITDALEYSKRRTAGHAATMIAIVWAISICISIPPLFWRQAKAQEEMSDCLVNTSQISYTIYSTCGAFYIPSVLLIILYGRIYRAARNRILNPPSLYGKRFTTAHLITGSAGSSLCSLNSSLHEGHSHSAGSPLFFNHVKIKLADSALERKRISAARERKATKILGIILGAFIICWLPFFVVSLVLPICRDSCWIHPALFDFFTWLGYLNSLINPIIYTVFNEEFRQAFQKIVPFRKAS
Procedure: as §1

[3] = read-out: N-Desmethyl Xanomeline

T1 sequence (P28335 33-458): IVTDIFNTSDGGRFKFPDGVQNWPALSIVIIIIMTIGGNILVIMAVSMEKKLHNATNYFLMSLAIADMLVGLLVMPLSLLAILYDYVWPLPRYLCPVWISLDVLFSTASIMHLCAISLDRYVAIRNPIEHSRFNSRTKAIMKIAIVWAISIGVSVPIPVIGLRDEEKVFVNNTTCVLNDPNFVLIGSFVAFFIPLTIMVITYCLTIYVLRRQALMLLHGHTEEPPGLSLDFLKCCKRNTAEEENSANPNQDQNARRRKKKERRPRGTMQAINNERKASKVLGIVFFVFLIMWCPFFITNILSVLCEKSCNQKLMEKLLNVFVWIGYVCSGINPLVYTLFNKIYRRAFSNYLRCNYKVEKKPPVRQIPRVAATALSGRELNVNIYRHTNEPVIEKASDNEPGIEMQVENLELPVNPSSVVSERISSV

Row | SMILES | Ki (5-HT2C) [nM] | Ki (M3 [1]) [nM] | Ki (α2B) [nM] | Ki (5-HT1F) [nM] | Ki (D3) [nM] | EC50 (M3 [2]) | Ki (5-HT2A) [nM] | Emax (CHRM1; [3]) [%] | Emax (CHRM3; [3]) [%] | Emax (CHRM4; [3]) [%] | Emax (HRH3; [3]) [%] | Emax (HRH4; [3]) [%] | Emax (HTR1D; [3]) [%] | Emax (CHRM1; read-out: Xanomeline) [%] | Emax (CHRM3; read-out: Xanomeline) [%] | Emax (CHRM4; read-out: Xanomeline) [%] | Emax (HRH3; read-out: Xanomeline) [%] | Emax (HRH4; read-out: Xanomeline) [%] | Emax (HTR1D; read-out: Xanomeline) [%]
1 | CCCCCCOc1nsnc1C1=CCCNC1 [N-desmethylxanomeline] | 324 | 112 | 339 | 224 | 646 | differential activation of M1-M5 muscarinic receptor transducers | 537 | 28.4 | 32.1 | 67.5 | 16.8 | 10.4 | 51.2 |  |  |  |  |  | 
2 | CCCCCCOc1nsnc1C1=CCCN(C)C1 [Xanomeline] | 204 | 74.1 | 316 | 759 | 251 | differential activation of M1-M5 muscarinic receptor transducers | 251 |  |  |  |  |  |  | 67 | 42.8 | 72.5 | 2.89 | 37.3 | 73.3
